These results are taken from patent US11911388B2, “Treatment for diabetes in patients with insufficient glycemic control despite therapy with an oral or non-oral antidiabetic drug” (Boehringer Ingelheim International GmbH, priority 2008, dated 2024).

Series [1] concerns db/db mice. The series is described as follows: HbA1c and blood glucose after 54 day treatment of db/db mice (SU secondary drug failure model). Type of series: in vivo, mouse. To be noted: 3 mg/kg p.o. daily, day 54, female db/db mice; for glucose values compared to control: semi-fed. From the text:
Sulfonylurea (SU) like glibenclamide are one of the most frequently used drugs in diabetes treatment. Long-term treatment with SU causes elevated basal insulin secretion and decreased glucose-stimulated insulin secretion. These characteristics may play an important role for the development of hypoglycemia and secondary drug failure. […] In addition, correlating with age of the animals pancreatic β-cells of aging db/db mice fails to compensate the high glucose excursion with enhanced insulin secretion. Therefore this model is appropriate to study the glibenclamide induced secondary drug failure in comparison to a DPP-4 inhibitor (e.g. BI 1356). Female db/db mice at 5 weeks of age, are obtained from Charles River, Germany. Animals are housed in groups of 5-6 animals under a 12:[…] cycle (lights on at 04:00 AM and lights off at 04:00 PM) in temperature and humidity controlled rooms. All animals have free access to regular rodent chow (Altromin standard #1324 chow, Denmark) and water ad libitum. The compound solutions are administered daily at 08.00 AM on experimental days 0-59 by per oral gavage using a gastric tube connected to a 3 ml syringe (Luer-lockTM, Becton). Groups of 12 animals are used: vehicle, 0.5% Natrosol; BI 1356 3 mg/kg; glibenclamide 3 mg/kg. Body weight food intake and water intake is recorded daily for the first two and twice weekly for the remaining period. On experimental day 54 blood glucose and HbA1c levels are determined in semi-fed state, on day 59 an OGTT (2 g/kg) is performed. Blood samples for determination of “fed” levels blood glucose and HbA1c are performed at 10.00 AM on day 54. Prior to blood sampling animals are transferred to clean cages with no food two hours before blood sampling. At day 59 an OGTT (2 g/kg) is performed following an over-night fast of the animals and insulin is detected at t=15 min. For each data point, 10 μl blood is drawn from the tip of the tail into a microcapillary tube and measured using a Biosen S line glucose analyzer. HbA1c: are measured using a standard enzyme assay kit on a fully automated analyzer (Bayer).

Series [2] has as its system db/db mice. The series is described as follows: Insulin during OGTT (2 g/kg) on day 59 in db/db mice. Format: in vivo, mouse. To be noted: 3 mg/kg p.o. daily, day 59, OGTT 2 g/kg, t=15 min. From the text: Sulfonylurea (SU) like glibenclamide are one of the most frequently used drugs in diabetes treatment. Long-term treatment with SU causes elevated basal insulin secretion and decreased glucose-stimulated insulin secretion. These characteristics may play an important role for the development of hypoglycemia and secondary drug failure. […] In addition, correlating with age of the animals pancreatic β-cells of aging db/db mice fails to compensate the high glucose excursion with enhanced insulin secretion. Therefore this model is appropriate to study the glibenclamide induced secondary drug failure in comparison to a DPP-4 inhibitor (e.g. BI 1356).
Female db/db mice at 5 weeks of age, are obtained from Charles River, Germany. […]
The compound solutions are administered daily at 08.00 AM on experimental days 0-59 by per oral gavage using a gastric tube connected to a 3 ml syringe (Luer-lock™, Becton). […] Body weight food intake and water intake is recorded daily for the first two and twice weekly for the remaining period. On experimental day 54 blood glucose and HbA1c levels are determined in semi-fed state, on day 59 an OGTT (2 g/kg) is performed.
Blood samples for determination of “fed” levels blood glucose and HbA1c are performed at 10.00 AM on day 54. […] At day 59 an OGTT (2 g/kg) is performed following an over-night fast of the animals and insulin is detected at t=15 min. […]

Structures are written as SMILES. “Also recorded” adds a separate entry of the source. Bounds are passed on as bounds.

With `COc1ccc(Cl)cc1C(=O)NCCc1ccc(S(=O)(=O)NC(=O)NC2CCCCC2)cc1` [glibenclamide, reference compound], in series [1], the “HbA1c compared to control” value was “impairs” and the “glucose values compared to control” value is listed as “impairs”.

As to `CC#CCn1c(N2CCC[C@@H](N)C2)nc2c1c(=O)n(Cc1nc(C)c3ccccc3n1)c(=O)n2C` [BI 1356], the “increase in insulin during OGTT” value in series [2] was “able to respond to the increased glucose levels with an up-regulation of insulin; also recorded: superior to glibenclamide”. In addition, in series [1], the “HbA1c compared to control” value was “improves; also recorded: superior to glibenclamide” and the “glucose values compared to control” value is given as “improves; also recorded: superior to glibenclamide”. Further, where the note is “human, in vivo”, the “form and route of excretion” value was “primarily excreted unchanged via the bile”. Where the note is “therapeutic oral dose levels”, the “excretion via the kidney” value is given as < 7 % of the administered oral dose.
